Measured values as given in patent publication US20080145432A1, “Fine Particle and Pharmaceutical Preparation” (priority 2005, published 2008).

Test system: BALB/c mice
Assay: Drug effect durability: serum glucose concentration after hypodermic injection
Assay type: in vivo
Conditions: 10 hours after administration under the dorsal skin, 15 μg insulin, fasted mice
Procedure: A particulate preparation enclosing 15 μg (WAKO) of insulin prepared in a method of example 9 was dispersed in 100 μL of normal saline (Otsuka), and was administered to 7-week-old male BALB/c mice (weighing 19 to 24 g) after fasting for 12 hours, under the dorsal skin by using 29 G injection needle (Terumo) (in the control group, 100 μL of normal saline (Otsuka) dissolving 15 μg of insulin was used). After administration, animals were kept fasted in individual cages, and blood samples collected from the caudal artery before and after administration were tested by biochemical automatic analyzer (Fuji Drychem 3500V of Fuji Film), by using measuring slide (GLU-WIII of Fuji Film), and changes of glucose concentration were measured at time intervals, and the average of serum glucose concentration changes of two animals each was calculated.

insulin
serum glucose concentration relative to level before administration: 80%
